From patent publication US11466066B2, “Variants of human BMP7 protein” (ELI LILLY AND COMPANY, priority 2017, dated 2022)

What was measured:
[1] = test system: ADSC/ECFC co-culture stimulated with VEGF; assay: VEGF-driven cord formation; type: cell-based; conditions: 100 nM; 10 ng/ml VEGF; 96 hours
From the text: (§1) An in vitro endothelial cord formation assay, a surrogate of angiogenesis, may be used to investigate the role of human BMP7 proteins on various growth factor established cords including, but not limited to, VEGF, basic FGF, and EGF established cords. Endothelial cord forming cells (ECFCs; passage 4-10 suitable for cord formation) may be cultured in EGM-2 MV (Lona) media containing a final concentration of 10% FBS and passaged onto type 1 collagen (fibrillar) coated flasks prior to seeding into the cord formation assay in vitro. […]
(§2) An ADSC/ECFC co-culture was unstimulated (basal) or stimulated with 10 ng/ml VEGF and treated simultaneously with PBS or 100 ng/ml human pro-BMP7 variant F9 or 100 nM sunitinib for 96 hours prior to immunohistochemistry for CD31 (green), α-smooth muscle actin (red), and Hoechst 33342 to stain all nuclei (blue). Resulting CD31-positive endothelial cords were visualized and quantitated using high content imaging. […]

[2] = test system: ADSC/ECFC co-culture stimulated with EGF; assay: EGF-driven cord formation; type: cell-based; conditions: 100 nM; 10 ng/ml EGF; 96 hours
From the text: as §1
as §2, with “EGF” for “VEGF”

[3] = test system: ADSC/ECFC co-culture stimulated with bFGF; assay: FGF-driven cord formation; type: cell-based; conditions: 100 nM; 10 ng/ml bFGF; 96 hours
From the text: as §1
as §2, with “bFGF” for “VEGF”

DLD1 C5 tumor xenografts = assay: DLD1 C5 mouse xenograft tumor model; type: in vivo; conditions: saline-treated, then irinotecan treated animals (20 mg/kg, M and Th)
Procedure: Female athymic nude mice age 6- to 7-weeks old are available commercially, including from Harlan Laboratories (Indianapolis, Ind.). The mice are allowed to acclimate for one week and fed ad libitum on a normal low fat (4.5%) diet, which may be continued for the duration of the study. Tumor cells are available for purchase from ATCC and may be cultured in cell culture media such as RPMI 1640 (Life Technologies) with L-glutamine, 25 mM HEPES supplemented with 10% FBS and 1 mM Na Pyruvate. Cells may be detached, washed with serum free medium and then resuspended at a final concentration of 50×10^6 cells/mL in serum free RPMI 1640. Tumor cells, approximately 5×106 may be injected subcutaneously in the rear flank of subject mice in a 1:1 mixture of serum free growth medium and Matrigel (Becton Dickinson, Bedford, Mass.). Tumor and body weight measurements may be performed twice weekly. Prior to treatment, mice can be randomized based on tumor size using a randomization algorithm. Treatments may be started when the average tumor volume reaches 100 mm3. […]
All test or control proteins are prepared in phosphate Buffered Saline (PBS) prior to dose. Tumor size may be determined by caliper measurements. […] Log volume data can be analyzed with two-way repeated measures ANOVA by time and treatment using SAS PROC MIXED software (SAS Institutes Inc, Cary, N.C.). […]

3T3-L1 fibroblasts = assay: Alkaline phosphatase stimulation in 3T3-L1 cells; type: cell-based; conditions: 1 μg/ml pro-BMP7, 1 μM ATRA, 48 hours
Procedure: (§3) 3T3-L1 fibroblasts and MFc7 mouse renal myofibroblasts may be grown essentially as described in Example 2 above. After 48 hours the cells may be washed with PBS prior to the addition of either DMEM/2% dialyzed FBS or OPTI-MEM/2% dialyzed FBS medium containing control vehicle, 1 μg/ml human proBMP7 protein, 1 μM ATRA or a combination of both human BMP7 protein (1 μg/ml) and ATRA (1 μM) may be added for 48 hours. After treatment the cells may be rinsed with PBS and stored at −80° C. for approximately 20 minutes. The cells may be thawed at 37° C. for 30 minutes and 100 μl of PNPP may be added to every well. The plate may be incubated at 37° C. for 1 hour. The absorbance at 405 nm may be read on a plate reader.

Ki67 = Ki67 expression in GBM cells; type: cell-based, human; conditions: ATRA 1 μg/ml, F9 100 ng/mL
Procedure: (§4) Glioblastoma multiforme stem cells (GBMs) may be obtained from patients with primitive brain tumors undergoing complete or partial surgical resection. These cells may be maintained as neurospheres in defined media with 3.34 g/L of DMEM and 2.66 g/L F12 reconstituted in sterile distilled water and containing 1% glucose, 0.12% sodium bicarbonate, 5 mM hepes, 2 mM L-glutamine, 4 mg/L heparin, 10 ng/mL bFGF, 20 ng/mL EGF, 0.4% BSA, 100 μg/mL apotransferrin, 25 μg/mL insulin, 60 uM putrescine, 30 nM sodium selenite, and 20 nM progesterone. Cells may be cultured at 37° C. in 5% CO2. Cells may be plated by enzymatically dispersing spheres into single cells with a 2-5 minute incubation at 37° C. with TrypLE™ Express cell dissociation enzyme. The enzyme may be quenched with Dulbecco's Phosphate Buffered Saline (DPBS) containing Ca+ and Mg+. Then the cells may centrifuged to remove TrypLE and DPBS and resuspended as single cells in defined media and counted by a Coulter Z2 Cell and Particle counter.
(§5) Single GBM cells may be plated in defined media at 2×10^6 cells/15 mL/T75 flask for high content imaging or 5×10^5 cells/2 mL/well in 6-well plates for light microscopy. Cells may be treated with 0.01% DMSO, 1 μg/mL ATRA, 100 ng/mL of a human BMP7 protein variant of the present invention (e.g., human BMP7 protein variant F9 (SEQ ID NO: 8)), or a combination of 1 μg/mL ATRA and 100 ng/mL human BMP7 protein variant of the present invention. For light microscopy imaging of the effect of control BMPs (BMP2 and BMP4), cells may be plated as above in 6-well dishes and treated with 0.01% DMSO, 1 μg/mL ATRA, 100 ng/mL BMP2, 50 ng/mL BMP4, or a combination of BMPs at the same concentrations plus 1 μg/mL ATRA. Example images may be captured at 3, 7, and 30 days post-treatment on a Leica DMIRM inverted microscope using a 20× objective, for example. For growth longer than 7 days, media and treatment may be changed approximately every 10 days beginning at day 10. […]

SOX2 = SOX2 expression in GBM cells; type: cell-based, human; conditions: ATRA 1 μg/ml, F9 100 ng/mL
Procedure: as §4, §5

[4] = test system: MFc7 mouse renal myofibroblasts; assay: Alkaline phosphatase stimulation in MFc7 cells; type: cell-based; conditions: 1 μg/ml pro-BMP7, 1 μM ATRA, 48 hours
Procedure: as §3

CCN(CC)CCNC(=O)c1c(C)[nH]c(/C=C2\C(=O)Nc3ccc(F)cc32)c1C [sunitinib, reference compound]
Connected Tube Area - VEGF (% PBS) [1]: 26.14 ± 9.88%
Connected Tube Area - EGF (% PBS) [2]: 9.89 ± 8.059%
Connected Tube Area - FGF (% PBS) [3]: 43.01 ± 18.28%

CCc1c2c(nc3ccc(OC(=O)N4CCC(N5CCCCC5)CC4)cc13)-c1cc3c(c(=O)n1C2)COC(=O)[C@]3(O)CC [irinotecan, reference compound]
tumor response (DLD1 C5 tumor xenografts): tumor growth

CC1=C(/C=C/C(C)=C/C=C/C(C)=C/C(=O)O)C(C)(C)CCC1 [ATRA, All-trans retinoic acid, reference compound]
fold change in alkaline phosphatase stimulation relative to control vehicle treated cells (3T3-L1 fibroblasts): 2.9 fold
Ki67 percent responders normalized to vehicle control (Ki67; GBM clone CL-1, Day 3): 99%
Ki67 percent responders normalized to vehicle control (Ki67; GBM clone CL-61, Day 0): 83%
Ki67 percent responders normalized to vehicle control (Ki67; GBM clone Cl-1, Day 25): 101%
SOX2 percent responders normalized to vehicle control (SOX2; GBM clone CL-1, Day 3): 97%
SOX2 percent responders normalized to vehicle control (SOX2; GBM clone CL-61, Day 0): 89%
SOX2 percent responders normalized to vehicle control (SOX2; GBM clone Cl-1, Day 25): 97%
fold change in alkaline phosphatase stimulation relative to control vehicle treated cells [4]: 8 fold
